# Source: patent US9914730B2, “Azaquinazoline inhibitors of Atypical protein Kinase C” (Ignyta, Inc., priority 2012, dated 2018)
# Target: T1, full-length human PKCι (Homo sapiens, UniProt P41743)
# T1 construct: Recombinant, full-length human PKCι expressed in Sf21 insect cells is also commercially available; purchased; host or cells: Sf21 insect cells
# T1 sequence (P41743 1-596): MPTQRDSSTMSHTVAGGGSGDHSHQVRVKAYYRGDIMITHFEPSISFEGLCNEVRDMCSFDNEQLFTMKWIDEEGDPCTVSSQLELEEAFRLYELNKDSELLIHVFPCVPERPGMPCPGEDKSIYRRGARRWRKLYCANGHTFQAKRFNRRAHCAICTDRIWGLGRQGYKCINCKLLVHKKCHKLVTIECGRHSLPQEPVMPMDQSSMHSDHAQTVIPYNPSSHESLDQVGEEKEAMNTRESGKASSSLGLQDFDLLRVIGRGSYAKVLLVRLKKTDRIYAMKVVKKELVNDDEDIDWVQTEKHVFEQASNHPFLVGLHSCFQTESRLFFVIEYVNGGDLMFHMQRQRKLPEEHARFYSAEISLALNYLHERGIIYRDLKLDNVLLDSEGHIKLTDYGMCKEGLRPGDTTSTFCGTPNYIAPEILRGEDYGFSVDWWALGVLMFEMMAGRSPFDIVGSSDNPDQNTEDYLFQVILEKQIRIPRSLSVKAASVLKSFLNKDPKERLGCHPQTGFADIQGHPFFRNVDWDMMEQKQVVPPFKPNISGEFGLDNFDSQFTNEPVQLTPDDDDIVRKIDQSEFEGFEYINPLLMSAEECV
# Assay: PKCι IC50 IMAP assay, full-length PKCι at 150 μM ATP
# Assay type: biochemical
# Settings: read-out: IC50 in IMAP assay against full length PKCi at 150 μM ATP
# Summary of the method: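 IC50 from IMAP FP (ex 485/em 530 nm) after 60 min room-temperature reaction in pH 7.5 tris buffer with 9 mM MgCl2 and 0.9 mM DTT. Enzyme: full-length Sf21-expressed PKCι (~15 pM); ATP 150 μM, five times KM^APP; FAM-labelled peptide 100 nM; DMSO 4%.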
row,IC50 [nM],Structure (SMILES)
1,< 100,"FC(F)(F)c1ccc(Nc2cc(-c3nc(N[C@@H]4CCNC4)c4ccncc4n3)ccn2)nc1 [Example 351, (R)-Pyrrolidin-3-yl-{2-[2-(5-trifluoromethyl-pyridin-2-ylamino)-pyridin-4-yl]-pyrido[3,4-d]pyrimidin-4-yl}-amine]"
2,< 100,"COc1cncc2nc(-c3ccnc(Nc4cc(C#N)ccn4)c3)nc(N3CCNCC3)c12 [Example 352, 2-[4-(5-Methoxy-4-piperazin-1-yl-pyrido[3,4-d]pyrimidin-2-yl)-pyridin-2-ylamino]-isonicotinonitrile]"
3,< 100,"COc1cncc2nc(-c3ccnc(Nc4ccc(C#N)cn4)c3)nc(N3CCNCC3)c12 [Example 353, 6-[4-(5-Methoxy-4-piperazin-1-yl-pyrido[3,4-d]pyrimidin-2-yl)-pyridin-2-ylamino]-nicotinonitrile]"
4,1000 to 10000,"COc1cncc2nc(-c3ccnc(Nc4ccccc4)c3)nc(N3CCC(N4CCOCC4)CC3)c12 [Example 354, {4-[5-Methoxy-4-(4-morpholin-4-yl-piperidin-1-yl)-pyrido[3,4-d]pyrimidin-2-yl]-pyridin-2-yl}-phenyl-amine]"
5,< 100,"COc1cncc2nc(-c3ccnc(NC(=O)Cc4ccc(C#N)cc4)c3)nc(N3CCNCC3)c12 [Example 355, 2-(4-Cyano-phenyl)-N-[4-(5-methoxy-4-piperazin-1-yl-pyrido[3,4-d]pyrimidin-2-yl)-pyridin-2-yl]-acetamide]"
6,< 100,"COc1cncc2nc(-c3ccnc(NC(=O)Cc4cccc(C#N)c4)c3)nc(N3CCNCC3)c12 [Example 356, 2-(3-Cyano-phenyl)-N-[4-(5-methoxy-4-piperazin-1-yl-pyrido[3,4-d]pyrimidin-2-yl)-pyridin-2-yl]-acetamide]"
7,< 100,"c1cc2c(N[C@@H]3CCNC3)nc(-c3ccnc(Nc4ccc(N5CCOCC5)cn4)c3)nc2cn1 [Example 357, {2-[2-(5-Morpholin-4-yl-pyridin-2-ylamino)-pyridin-4-yl]-pyrido[3,4-d]pyrimidin-4-yl}-(R)-pyrrolidin-3-yl-amine]"
8,100 to 1000,"COc1cc(N2CCOCC2)ccc1Nc1cc(-c2nc(N[C@@H]3CCNC3)c3ccncc3n2)ccn1 [Example 358, {2-[2-(2-Methoxy-4-morpholin-4-yl-phenylamino)-pyridin-4-yl]-pyrido[3,4-d]pyrimidin-4-yl}-(R)-pyrrolidin-3-yl-amine]"

# More lines, now with the values behind:
row,Structure (SMILES),IC50 [nM]
1,"COc1cncc2nc(-c3ccnc(Nc4ccc(Cn5ccnc5)cc4)c3)nc(N[C@@H]3CCNC3)c12 [Example 333, {2-[2-(4-Imidazol-1-ylmethyl-phenylamino)-pyridin-4-yl]-5-methoxy-pyrido[3,4-d]pyrimidin-4-yl}-(R)-pyrrolidin-3-yl-amine]",1000 to 10000
2,"O=C(Cc1ccccc1)Nc1cc(-c2nc(N[C@@H]3CCNC3)c3ccncc3n2)ccn1 [Example 334, 2-Phenyl-N-{4-[4-((R)-pyrrolidin-3-ylamino)-pyrido[3,4-d]pyrimidin-2-yl]-pyridin-2-yl}-acetamide]",1000 to 10000
3,"COc1ccc(CC(=O)Nc2cc(-c3nc(N[C@@H]4CCNC4)c4ccncc4n3)ccn2)cc1 [Example 335, 2-(4-Methoxy-phenyl)-N-{4-[4-((R)-pyrrolidin-3-ylamino)-pyrido[3,4-d]pyrimidin-2-yl]-pyridin-2-yl}-acetamide]",100 to 1000
4,"COc1ccccc1CC(=O)Nc1cc(-c2nc(N[C@@H]3CCNC3)c3ccncc3n2)ccn1 [Example 336, 2-(2-Methoxy-phenyl)-N-{4-[4-((R)-pyrrolidin-3-ylamino)-pyrido[3,4-d]pyrimidin-2-yl]-pyridin-2-yl}-acetamide]",100 to 1000
5,"COc1cccc(CC(=O)Nc2cc(-c3nc(N[C@@H]4CCNC4)c4ccncc4n3)ccn2)c1 [Example 337, 2-(3-Methoxy-phenyl)-N-{4-[4-((R)-pyrrolidin-3-ylamino)-pyrido[3,4-d]pyrimidin-2-yl]-pyridin-2-yl}-acetamide]",< 100
6,"Cc1ccnc(Nc2cc(-c3nc(N[C@@H]4CCNC4)c4ccncc4n3)ccn2)c1 [Example 338, {2-[2-(4-Methyl-pyridin-2-ylamino)-pyridin-4-yl]-pyrido[3,4-d]pyrimidin-4-yl}-(R)-pyrrolidin-3-yl-amine]",1000 to 10000
7,"Clc1ccnc(Nc2cc(-c3nc(N[C@@H]4CCNC4)c4ccncc4n3)ccn2)c1 [Example 339, {2-[2-(4-Chloro-pyridin-2-ylamino)-pyridin-4-yl]-pyrido[3,4-d]pyrimidin-4-yl}-(R)-pyrrolidin-3-yl-amine]",< 100
8,"N#Cc1ccc(Nc2cc(-c3nc(N[C@@H]4CCNC4)c4ccncc4n3)ccn2)nc1 [Example 341, 6-{4-[4-((R)-Pyrrolidin-3-ylamino)-pyrido[3,4-d]pyrimidin-2-yl]-pyridin-2-ylamino}-nicotinonitrile]",< 100
9,"N#Cc1ccnc(Nc2cc(-c3nc(N4CCNCC4)c4ccncc4n3)ccn2)c1 [Example 342, 2-[4-(4-piperazin-1-yl-pyrido[3,4-d]pyrimidin-2-yl)-pyridin-2-ylamino]-isonicotinonitrile]",100 to 1000
10,"c1cc2c(N[C@@H]3CCNC3)nc(-c3ccnc(Nc4cc(N5CCOCC5)ccn4)c3)nc2cn1 [Example 343, {2-[2-(4-Morpholin-4-yl-pyridin-2-ylamino)-pyridin-4-yl]-pyrido[3,4-d]pyrimidin-4-yl}-(R)-pyrrolidin-3-yl-amine]",100 to 1000
11,"COc1cncc2nc(-c3ccnc(Nc4ccc(C#N)cn4)c3)nc(N[C@@H]3CCNC3)c12 [Example 344, 6-{4-[5-Methoxy-4-((R)-pyrrolidin-3-ylamino)-pyrido[3,4-d]pyrimidin-2-yl]-pyridin-2-ylamino}-nicotinonitrile]",< 100
12,"Cc1ccc(Nc2cc(-c3nc(N[C@@H]4CCNC4)c4ccncc4n3)ccn2)nc1 [Example 345, {2-[2-(5-Methyl-pyridin-2-ylamino)-pyridin-4-yl]-pyrido[3,4-d]pyrimidin-4-yl}-(R)-pyrrolidin-3-yl-amine]",< 100
13,"Clc1ccc(Nc2cc(-c3nc(N[C@@H]4CCNC4)c4ccncc4n3)ccn2)nc1 [Example 346, {2-[2-(5-Chloro-pyridin-2-ylamino)-pyridin-4-yl]-pyrido[3,4-d]pyrimidin-4-yl}-(R)-pyrrolidin-3-yl-amine]",< 100
14,"c1cc(Nc2cc(-c3nc(N[C@@H]4CCNC4)c4ccncc4n3)ccn2)ncn1 [Example 347, {2-[2-(Pyrimidin-4-ylamino)-pyridin-4-yl]-pyrido[3,4-d]pyrimidin-4-yl}-(R)-pyrrolidin-3-yl-amine]",< 100
15,"N#Cc1cccc(CC(=O)Nc2cc(-c3nc(N[C@@H]4CCNC4)c4ccncc4n3)ccn2)c1 [Example 348, 2-(3-Cyano-phenyl)-N-{4-[4-((R)-pyrrolidin-3-ylamino)-pyrido[3,4-d]pyrimidin-2-yl]-pyridin-2-yl}-acetamide]",< 100
16,"N#Cc1ccc(CC(=O)Nc2cc(-c3nc(N[C@@H]4CCNC4)c4ccncc4n3)ccn2)cc1 [Example 349, 2-(4-Cyano-phenyl)-N-{4-[4-((R)-pyrrolidin-3-ylamino)-pyrido[3,4-d]pyrimidin-2-yl]-pyridin-2-yl}-acetamide]",< 100
17,"FC(F)(F)c1ccnc(Nc2cc(-c3nc(N[C@@H]4CCNC4)c4ccncc4n3)ccn2)c1 [Example 350, (R)-Pyrrolidin-3-yl-{2-[2-(4-trifluoromethyl-pyridin-2-ylamino)-pyridin-4-yl]-pyrido[3,4-d]pyrimidin-4-yl}-amine]",< 100
